Reference: patent EP1477475A1, “Compounds for use as a medicine increasing the contractility of a heart, a heart muscle or cells of a heart muscle” (Procorde GmbH, priority 2003, dated 2004)
“Also recorded” adds a separate entry of the source.

Assays:
[1] = system: Gβγ-dependent activity of G protein-coupled receptor kinase 2 (GRK-2); assay: Rhodopsin phosphorylation assay (Gβγ-dependent GRK-2 activity); format: biochemical, bovine
Method: All substances derived from the virtual screen were tested for their ability to inhibit the Gβγ-dependent activity of G protein-coupled receptor kinase 2 (GRK-2) in a rhodopsin phosphorylation assay. Stock solutions of 10mM of all compounds were dissolved in DMSO, for all assays (in vitro and cellular) DMSO was added in the same amount to the respective control group. The initial compound screen was carried out in a 96 well plate formate. The assay mix contained 15µM ATP, 10mM MgCl2, 20nM Gβγ (from bovine brain), 60nM GRK-2(purified from baculoviral culture), ^32P-ATP (approximately 200.000 cpm/assay point) and 10µM of the respective compound in 50µl assay buffer (20mM Hepes pH 7.2, 2mM EDTA); 600nM rhodopsin (purified from bovine retina) was added in the dark. Stimulation was achieved by incubation for 10-15 min under yellow light. Subsequently, the mix was aspirated with a cell harvester and applied onto a glass-fiber membrane (GF/C); then, the assay plate was washed 10 times with 10ml assay buffer each. The membrane was counted in a Wallac counter (Cerenkov). Additionally, 45µl of the assay mix were counted to determine the total amount of radioactivity in the assay. […]
To test the ability of the compounds to inhibit Gβγ-dependent signalling a rhodopsin phosphorylation assay may be used. […] The effect of different compound concentrations may be determined in the same assay. […]

[2] = system: native M1 receptor in HEK 293 cells; assay: Calcium measurements (Fura-2) in HEK 293 cells after carbachol (Gq-coupled pathway); format: cell-based; conditions: Figure 8; 30 µM compound, 30 minutes pre-incubation; 100 µM carbachol
[3] = system: isolated rabbit cardiomyocytes; assay: Measurement of cell shortening of isolated cardiomyocytes; format: cell-based; conditions: Figure 10; 10 µM COM1 for 10 minutes, then isoproterenol 1x10^-9 - 1x10^-7M; n = 8 cells per group
Method: Female New Zealand White rabbits (12 weeks old) were anesthesized with thiopental (75-1 00mg/kg) and 500 U heparin were injected intravenously. The thorax was opened and the heart was excised and put into ice-cold NaCl solution (0.9%). Fat and pericardium were removed. The aorta was attached to a perfusion system connected to a pump and the heart was retrogradely pefused at a flow rate of 20-40 ml/min with oxygenated (95% oxygen, 5% CO2) Powell medium (110mM NaCl, 2.5mM KCI, KH2PO4 1.2 mM, MgSO4 1.2 mM, NaHCO3 25 mM, Glucose 11 mM; pH 7.4) until all blood was washed out. […]
Cell shortening was measured with an electro-optical monitoring system connected to an online digitalized assessment of amplitude and velocity of shortening and relaxation (Scientific Instruments). […] Cell shortening was monitored using an edge detection camera and the data were transferred to a computer and fractional shortening was calculated for a single cell.
Overexpression of proteins which can bind Gβγ subunits, such as phosducin or the C-terminus of GRK-2, result in an increased contractility of cardiomyocytes. Therefore, the compounds' effects on this important parameter were determined. In isolated rabbit cardiomyocytes, basal, compound-incubated and isoproterenol- stimulated contractility were measured and expressed as fractional shortening of the single cell.

| Reversal of inhibition of Gβγ-dependent GRK-2 activity by increasing concentrations of the substrate rhodopsin ([1]; Figure 4, GRK-2 50 nM, COM1 30 µM, rhodopsin 10-3000 nM) | Structure (SMILES) | Effect of increasing concentrations of Gβγ on the inhibition of GRK-2-mediated phosphorylation of rhodopsin ([1]; Figure 3, COM2 3µM, GRK-2 50nM, rhodopsin 100nM, Gβγ 3 to 1000 nM, result at 1000 nM Gβγ) | Calcium release mediated via the Gq-coupled pathway [2] | Isoproterenol-stimulated contractility (fractional shortening, contraction amplitude) [3] |
| --- | --- | --- | --- | --- |
| – | O=C(Nc1ccccc1C(=O)O)c1ccc2c(c1)C(=O)N(c1ccc(Oc3ccc(N4C(=O)c5ccc(C(=O)Nc6ccccc6C(=O)O)cc5C4=O)cc3)cc1)C2=O [COM2, 2-[({2-[4-(4-{5-[(2-carboxyanilino)carbonyl]-1,3-dioxo-1,3-dihydro-2H-isoindol-2-yl}phenoxy)phenyl]-1,3-dioxo-2,3-dihydro-1H-isoindol-5-yl}carbonyl)amino]benzoic acid] | completely blunted; also recorded: completely reversed | does not have an effect | – |
| – | O=C(C=Cc1ccco1)Nc1ccc(-c2ccc(NC(=O)C=Cc3ccco3)c(C(=O)O)c2)cc1C(=O)O [COM3, 4,4'-bis{[3-(2-furyl)acryloyl]amino}[1,1'-biphenyl]-3,3'-dicarboxylic acid] | – | displays an inhibitory potential | – |
| can be reversed | O=C(Nc1ccc(-c2ccc(NC(=O)c3ccc(F)cc3)c(C(=O)O)c2)cc1C(=O)O)c1ccc(F)cc1 [COM1, 4,4'-bis[(4-fluorobenzoyl)amino][1,1'-biphenyl]-3,3'-dicarboxylic acid] | – | – | positive inotropic effect |
